Like-named read-outs stand apart in the source and are kept apart here.
Columns and labels:
[1] = biological target: CYP3A4 (Homo sapiens, UniProt P08684); assay: CYP3A4 % inhibition; assay type: in vitro ADME
[2] = biological target: CYP2C9 (Homo sapiens, UniProt P11712); assay: CYP2C9 % inhibition; assay type: in vitro ADME
[3] = biological target: T1, alpha3 (ganglionic) nACh receptors (Homo sapiens, UniProt P30926+P32297); assay: calcium-monitoring FLIPR selectivity assay using the native SH-SY5Y cell line; assay type: cell-based; details: read-out: Alpha 3 EC50
T1 construct: using the native SH-SY5Y cell line; endogenous in cells; host or cells: SH-SY5Y
T1 sequence (P32297 32-505): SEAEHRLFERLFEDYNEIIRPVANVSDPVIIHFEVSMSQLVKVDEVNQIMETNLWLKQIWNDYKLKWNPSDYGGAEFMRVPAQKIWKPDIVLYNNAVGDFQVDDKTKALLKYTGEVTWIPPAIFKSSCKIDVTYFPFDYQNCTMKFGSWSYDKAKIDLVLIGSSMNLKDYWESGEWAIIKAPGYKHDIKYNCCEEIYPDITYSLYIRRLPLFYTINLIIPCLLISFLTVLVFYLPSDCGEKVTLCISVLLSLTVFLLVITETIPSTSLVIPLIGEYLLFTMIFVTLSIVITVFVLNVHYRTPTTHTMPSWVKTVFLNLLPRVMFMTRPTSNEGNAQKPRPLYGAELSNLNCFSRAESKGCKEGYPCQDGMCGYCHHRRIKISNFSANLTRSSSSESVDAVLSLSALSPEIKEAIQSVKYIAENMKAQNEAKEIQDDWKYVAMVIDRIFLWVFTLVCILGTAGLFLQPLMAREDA
T1 sequence (P30926 22-498): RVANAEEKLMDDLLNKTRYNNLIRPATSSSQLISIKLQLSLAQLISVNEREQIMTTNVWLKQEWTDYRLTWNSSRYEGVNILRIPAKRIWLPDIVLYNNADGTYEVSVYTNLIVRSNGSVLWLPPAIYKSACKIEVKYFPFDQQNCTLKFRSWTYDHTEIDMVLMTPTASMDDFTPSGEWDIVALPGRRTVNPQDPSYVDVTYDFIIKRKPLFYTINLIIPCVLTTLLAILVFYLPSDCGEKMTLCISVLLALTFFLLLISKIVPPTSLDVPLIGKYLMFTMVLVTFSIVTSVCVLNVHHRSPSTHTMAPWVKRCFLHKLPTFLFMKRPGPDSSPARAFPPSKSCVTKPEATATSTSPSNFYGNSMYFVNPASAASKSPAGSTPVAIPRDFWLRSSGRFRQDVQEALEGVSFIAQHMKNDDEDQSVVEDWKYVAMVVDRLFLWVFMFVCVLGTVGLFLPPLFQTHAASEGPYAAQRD
From the text: Functional FLIPR assays were developed in order to test the selectivity of compounds against the alpha1 (muscular) and alpha3 (ganglionic) nACh receptors and the structurally related 5-HT3 receptor. […] In order to test selectivity against the 5-HT3 receptor, a recombinant cell line was constructed expressing the human 5-HT3A receptor in HEK 293 cells and a calcium-monitoring FLIPR assay employed.

[4] = biological target: CYP2D6 (Homo sapiens, UniProt P10635); assay: CYP2D6 % inhibition; assay type: in vitro ADME
Sequence of CYP2D6 (P10635 whole entry, species assumed): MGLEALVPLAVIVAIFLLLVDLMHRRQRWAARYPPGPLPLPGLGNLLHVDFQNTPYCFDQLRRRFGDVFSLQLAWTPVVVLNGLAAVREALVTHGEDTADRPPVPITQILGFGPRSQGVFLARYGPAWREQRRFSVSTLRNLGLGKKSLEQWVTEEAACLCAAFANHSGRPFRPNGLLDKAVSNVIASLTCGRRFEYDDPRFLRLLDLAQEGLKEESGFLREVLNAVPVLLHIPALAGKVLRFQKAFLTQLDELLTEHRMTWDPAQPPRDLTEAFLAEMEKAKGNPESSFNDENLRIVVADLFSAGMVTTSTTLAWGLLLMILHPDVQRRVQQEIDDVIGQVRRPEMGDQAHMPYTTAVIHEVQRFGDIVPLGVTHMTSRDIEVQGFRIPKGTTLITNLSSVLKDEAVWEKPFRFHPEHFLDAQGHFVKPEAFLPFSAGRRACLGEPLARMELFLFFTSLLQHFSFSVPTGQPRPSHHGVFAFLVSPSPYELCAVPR

[5] = biological target: T2, rat-alpha7-nAChR (Rattus norvegicus, UniProt Q05941); assay: functional FLIPR assay, alpha7 nAChR stably expressed in GH4C1 cells; assay type: cell-based
T2 construct: expressed in transfected cells
T2 sequence (Q05941 23-502): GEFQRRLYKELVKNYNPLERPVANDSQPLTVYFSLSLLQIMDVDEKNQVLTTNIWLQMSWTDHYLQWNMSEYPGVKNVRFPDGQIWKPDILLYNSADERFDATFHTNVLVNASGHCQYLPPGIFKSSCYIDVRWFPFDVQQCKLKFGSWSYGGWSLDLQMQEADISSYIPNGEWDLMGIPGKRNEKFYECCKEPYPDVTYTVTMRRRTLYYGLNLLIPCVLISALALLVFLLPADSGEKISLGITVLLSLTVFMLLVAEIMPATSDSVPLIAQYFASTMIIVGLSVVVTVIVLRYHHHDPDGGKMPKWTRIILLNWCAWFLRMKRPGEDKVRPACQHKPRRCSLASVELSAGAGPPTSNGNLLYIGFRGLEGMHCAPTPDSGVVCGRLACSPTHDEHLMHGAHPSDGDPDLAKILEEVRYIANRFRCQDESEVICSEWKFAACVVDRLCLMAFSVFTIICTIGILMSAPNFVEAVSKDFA
From the text: Rat GH4C1 cells were then transfected with the rat receptor, cloned and analyzed for functional alpha7 nicotinic receptor expression employing a FLIPR assay to measure changes in intracellular calcium concentrations.
The FLIPR system allows the measurements of real time Ca^2+-concentration changes in living cells using a Ca^2+ sensitive fluorescence dye (such as Fluo4). This instrument enables the screening for agonists and antagonists for alpha 7 nAChR channels stably expressed in GH4C1 cells.
GH4C1 cells stably transfected with rat-alpha7-nAChR (see above) were used. These cells are poorly adherent and therefore pretreatment of flasks and plates with poly-D-lysine was carried out. Cells are grown in 150 cm^2 T-flasks, filled with 30 ml of medium at 37° C. and 5% CO2.
EC50 and IC50 values were calculated using the IDBS XLfit4.1 software package employing a sigmoidal concentration-response (variable slope) equation:
Y=Bottom+((Top−Bottom)/(1+((EC50/X)̂HillSlope))
Certain compounds of the present disclosure were tested using the functional FLIPR primary screening assay employing the stable recombinant GH4C1 cell line expressing the alpha7 nAChR.

[6] = GH4C1 cell line expressing the alpha7 nAChR, concentration-response curves, read-out: Alpha 7 EC50

Sequence of CYP3A4 (P08684 whole entry, species assumed): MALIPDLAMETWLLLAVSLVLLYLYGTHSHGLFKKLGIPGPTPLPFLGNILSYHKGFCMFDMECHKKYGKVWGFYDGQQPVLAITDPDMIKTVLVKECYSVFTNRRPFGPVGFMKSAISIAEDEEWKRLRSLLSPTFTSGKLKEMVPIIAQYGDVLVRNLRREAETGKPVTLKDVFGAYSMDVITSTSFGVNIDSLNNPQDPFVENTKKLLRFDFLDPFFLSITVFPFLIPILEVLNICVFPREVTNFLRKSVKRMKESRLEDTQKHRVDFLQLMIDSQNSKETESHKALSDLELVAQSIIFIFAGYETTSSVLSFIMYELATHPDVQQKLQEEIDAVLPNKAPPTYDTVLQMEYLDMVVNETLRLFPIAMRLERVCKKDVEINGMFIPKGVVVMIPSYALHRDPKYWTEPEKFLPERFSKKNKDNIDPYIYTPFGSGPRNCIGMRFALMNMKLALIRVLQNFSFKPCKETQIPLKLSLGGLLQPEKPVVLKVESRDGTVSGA
Sequence of CYP2C9 (P11712 whole entry, species assumed): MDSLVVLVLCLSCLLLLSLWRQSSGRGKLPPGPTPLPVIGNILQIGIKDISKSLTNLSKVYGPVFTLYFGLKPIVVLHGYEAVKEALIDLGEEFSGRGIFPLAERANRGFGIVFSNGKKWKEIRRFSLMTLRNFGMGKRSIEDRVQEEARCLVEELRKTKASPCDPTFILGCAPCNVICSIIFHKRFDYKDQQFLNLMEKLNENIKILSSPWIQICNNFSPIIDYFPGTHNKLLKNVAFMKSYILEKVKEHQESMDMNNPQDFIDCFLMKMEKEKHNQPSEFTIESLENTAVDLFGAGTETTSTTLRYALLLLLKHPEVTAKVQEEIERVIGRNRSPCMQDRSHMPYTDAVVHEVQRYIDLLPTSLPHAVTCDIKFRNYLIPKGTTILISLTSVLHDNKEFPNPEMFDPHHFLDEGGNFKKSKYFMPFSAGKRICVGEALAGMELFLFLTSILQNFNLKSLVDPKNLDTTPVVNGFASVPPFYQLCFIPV

Compound	CYP3A4 % inhibition [1] [%]	CYP2C9 % inhibition [2] [%]	EC50 [3] [nM]	CYP2D6 % inhibition [4] [%]	EC50 [5, 6] [nM]	EC50 ([5]; assay validation with agonists, alpha7 nAChR in GH4C1 cells, concentration range 0.001 to 30 microM, read-out: EC50) [nM]
Cn1cc(-c2ccc(NC(=O)NCCCCN3CCCCC3)cn2)cn1	−4	3	> 30000	1	450	
Cn1cc(-c2ccc(NC(=O)NCCCCN3CCCCC3)cc2)cn1	68	9	5040	45	130	
O=C(NCCCCN1CCCCC1)Nc1ccc(-c2ccccc2F)nc1	−3	−10	5550	14	200	
O=C(NCCCCN1CCCCC1)Nc1ccc(-c2ccccc2F)cc1	−17	−1	1500	75	190	
COc1ccc(F)c(-c2ccc(NC(=O)NCCCCN3CCCCC3)cn2)c1	43	10	4340	18	80	
COc1ccc(F)c(-c2ccc(NC(=O)NCCCCN3CCCCC3)cc2)c1	51	−26	2320	83	100	
COc1ccccc1-c1ccc(NC(=O)NCCCCN2CCCCC2)cn1	8	6	3860	8	260	
COc1ccccc1-c1ccc(NC(=O)NCCCCN2CCCCC2)cc1	5	−2	1080	38	170	
O=C(NCCCCN1CCCCC1)Nc1ccc(-c2cccs2)nc1	2	2	8430	7	100	
O=C(NCCCCN1CCCCC1)Nc1ccc(-c2cccs2)cc1	24	−5	3560	69	190	
O=C(NCCCCN1CCCCC1)Nc1ccc(-c2cccc(F)c2)nc1	26	0		10	180	
O=C(NCCCCN1CCCCC1)Nc1ccc(-c2cccc(F)c2)cc1	−21	−12	1780	62	110	
O=C(NCCCCN1CCCCC1)Nc1ccc(-c2cccnc2)nc1	0	−3	9880	22	590	
O=C(NCCCCN1CCCCC1)Nc1ccc(-c2cccnc2)cc1	2	−22	3610	72	100	
O=C(NCCCCN1CCCCC1)Nc1ccc(-c2ccc(F)cc2)nc1			9530			
O=C(NCCCCN1CCCCC1)Nc1ccc(-c2ccc(F)cc2)cc1	−13	−16	1730	65	220	
O=C(NCCCC[N+]1([O-])CCCCC1)Nc1ccc(-c2ccc(F)cc2)nc1			9800		460	
O=C(NCCCCN1CCCCC1)Nc1ccc(-c2ccc(F)nc2)nc1	−19	−10		8	720	
O=C(NCCCCN1CCCCC1)Nc1ccc(-c2ccc(F)nc2)cc1	−22	−18	1210	21	130	
COc1ccc(-c2ccc(NC(=O)NCCCCN3CCCCC3)cn2)cc1	−8	−15	4120	54	260	
COc1ccc(-c2ccc(NC(=O)NCCCCN3CCCCC3)cc2)cc1	32	−14	1770	97	220	
O=C(NCCCCN1CCCCC1)Nc1ccc(-c2ccc3c(c2)OCO3)nc1	65	6		79	140	
O=C(NCCCCN1CCCCC1)Nc1ccc(-c2ccc3c(c2)OCO3)cc1	74	0	1720	97	100	
O=C(NCCCCN1CCCCC1)Nc1ccc(-c2ccncc2)nc1	−1	1		12	400	
O=C(NCCCCN1CCCCC1)Nc1ccc(-c2ccncc2)cc1	17	6	2950	48	180	
O=C(NCCCCN1CCCCC1)Nc1ccc(-c2ccccc2)nc1	−21	−4	10100	6	90	
O=C(NCCCCN1CCCCC1)Nc1ccc(-c2ccccc2)cc1	51	2	2840	64	310	
C[N+]1(C)CCN(c2ccccc2)CC1 [DMPP, reference compound]						980 ± 470
COc1ncccc1-c1ccc(NC(=O)NCCCCN2CCCCC2)cn1 [drawing 62]	−4	−12	15700	8		
COc1ncccc1-c1ccc(NC(=O)NCCCCN2CCCCC2)cn1 [drawing 63]	−21	−36	5670	8		

— patent US20100016343A1 (WYETH, priority 2008, published 2010)
